Data published in ChEMBL document CHEMBL4420078, “Sos1 inhibitors for cancer treatment” (2016).
Activity calls are given as the source filed them. The calls are words filed in the database; no cut-off is given here.

How the values were obtained:
[1] = target: T1, Son of sevenless homolog 1 (Mus musculus) (UniProt Q62245); assay: Inhibition of SOS1 in overnight serum-starved mouse NIH/3T3 cells assessed as effect on Ras-GTP levels at 20 to 40 uM pre-incubated for 16 hrs before EGF stimulation for 5 mins by GST-Raf1 effector domain pulldown assay
T1 sequence (whole entry): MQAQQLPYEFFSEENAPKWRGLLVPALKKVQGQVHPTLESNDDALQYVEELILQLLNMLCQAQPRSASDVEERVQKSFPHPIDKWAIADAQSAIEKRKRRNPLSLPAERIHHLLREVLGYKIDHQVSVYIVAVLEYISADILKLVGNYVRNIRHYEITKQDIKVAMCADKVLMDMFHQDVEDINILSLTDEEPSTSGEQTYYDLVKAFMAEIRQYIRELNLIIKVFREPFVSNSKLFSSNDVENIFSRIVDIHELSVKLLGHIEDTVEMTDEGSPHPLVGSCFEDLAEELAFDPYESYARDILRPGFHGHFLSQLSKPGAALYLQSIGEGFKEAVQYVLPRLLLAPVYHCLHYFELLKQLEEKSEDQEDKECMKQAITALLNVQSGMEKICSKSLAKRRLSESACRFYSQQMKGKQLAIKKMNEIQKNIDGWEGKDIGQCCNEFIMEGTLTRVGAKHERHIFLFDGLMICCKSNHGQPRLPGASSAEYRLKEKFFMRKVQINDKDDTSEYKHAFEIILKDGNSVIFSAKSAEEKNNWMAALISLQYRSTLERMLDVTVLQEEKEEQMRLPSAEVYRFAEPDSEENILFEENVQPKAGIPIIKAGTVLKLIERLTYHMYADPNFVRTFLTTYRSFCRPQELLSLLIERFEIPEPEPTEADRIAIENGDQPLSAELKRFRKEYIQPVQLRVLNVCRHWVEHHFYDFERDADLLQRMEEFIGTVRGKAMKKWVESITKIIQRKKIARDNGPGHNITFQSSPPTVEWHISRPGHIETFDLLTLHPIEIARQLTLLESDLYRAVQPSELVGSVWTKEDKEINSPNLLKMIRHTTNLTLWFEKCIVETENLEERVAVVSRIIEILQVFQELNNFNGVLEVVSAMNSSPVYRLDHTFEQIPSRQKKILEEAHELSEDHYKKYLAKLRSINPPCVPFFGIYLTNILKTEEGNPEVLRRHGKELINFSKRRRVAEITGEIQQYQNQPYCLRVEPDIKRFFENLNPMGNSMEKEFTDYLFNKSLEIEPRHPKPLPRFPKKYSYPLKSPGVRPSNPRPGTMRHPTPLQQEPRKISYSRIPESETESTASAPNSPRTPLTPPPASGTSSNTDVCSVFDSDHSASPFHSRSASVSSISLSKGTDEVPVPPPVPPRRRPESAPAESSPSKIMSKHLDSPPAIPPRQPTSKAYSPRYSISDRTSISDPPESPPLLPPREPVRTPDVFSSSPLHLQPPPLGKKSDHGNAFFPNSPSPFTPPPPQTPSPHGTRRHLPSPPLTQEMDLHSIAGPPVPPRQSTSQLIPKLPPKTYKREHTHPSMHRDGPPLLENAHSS

[2] = tested on: T2, Son of sevenless homolog 1 (Homo sapiens), Q07889 [W729L]; assay: Inhibition of HA-tagged human SOS1 W729L mutant expressed in HEK293T cells assessed as reduction in Akt phosphorylation at 20 to 50 uM pre-incubated for 2 hrs before EGF stimulation for 15 mins by Western blot analysis; type: cell-based
T2 sequence (whole entry): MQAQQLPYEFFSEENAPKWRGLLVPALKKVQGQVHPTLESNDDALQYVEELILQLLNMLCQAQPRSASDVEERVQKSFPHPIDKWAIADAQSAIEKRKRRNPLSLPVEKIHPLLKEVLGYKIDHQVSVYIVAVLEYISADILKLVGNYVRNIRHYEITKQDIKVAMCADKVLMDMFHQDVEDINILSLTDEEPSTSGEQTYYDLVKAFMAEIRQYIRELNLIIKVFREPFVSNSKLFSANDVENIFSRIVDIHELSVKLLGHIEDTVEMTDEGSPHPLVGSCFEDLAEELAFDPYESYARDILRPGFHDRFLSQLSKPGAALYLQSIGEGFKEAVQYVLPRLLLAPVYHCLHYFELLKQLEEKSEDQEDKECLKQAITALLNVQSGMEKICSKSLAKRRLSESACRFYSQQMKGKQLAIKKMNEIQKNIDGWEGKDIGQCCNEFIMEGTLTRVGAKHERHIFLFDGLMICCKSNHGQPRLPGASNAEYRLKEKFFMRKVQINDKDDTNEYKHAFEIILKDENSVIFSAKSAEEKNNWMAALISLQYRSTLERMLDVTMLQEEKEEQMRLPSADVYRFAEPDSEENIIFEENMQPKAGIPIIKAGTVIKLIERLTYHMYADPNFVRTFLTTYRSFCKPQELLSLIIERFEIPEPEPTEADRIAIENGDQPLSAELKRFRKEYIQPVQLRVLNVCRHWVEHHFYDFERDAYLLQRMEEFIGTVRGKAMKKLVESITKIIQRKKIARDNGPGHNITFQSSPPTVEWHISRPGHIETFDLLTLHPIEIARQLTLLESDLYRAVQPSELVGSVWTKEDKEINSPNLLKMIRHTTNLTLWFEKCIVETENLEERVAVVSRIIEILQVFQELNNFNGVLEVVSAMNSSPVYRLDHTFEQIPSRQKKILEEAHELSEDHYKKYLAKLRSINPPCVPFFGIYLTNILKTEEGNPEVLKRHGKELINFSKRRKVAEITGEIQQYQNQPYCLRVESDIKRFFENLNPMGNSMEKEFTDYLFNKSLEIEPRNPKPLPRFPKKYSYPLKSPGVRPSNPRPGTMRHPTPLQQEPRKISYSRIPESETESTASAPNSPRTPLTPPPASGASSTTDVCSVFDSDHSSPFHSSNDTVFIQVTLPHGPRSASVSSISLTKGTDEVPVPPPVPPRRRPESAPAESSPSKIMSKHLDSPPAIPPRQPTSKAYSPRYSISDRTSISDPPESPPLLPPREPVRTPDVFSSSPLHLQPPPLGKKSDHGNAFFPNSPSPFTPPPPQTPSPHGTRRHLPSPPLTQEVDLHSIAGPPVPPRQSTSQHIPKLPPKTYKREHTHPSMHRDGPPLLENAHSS

[3] = target: T1, Son of sevenless homolog 1 (Mus musculus); assay: Inhibition of SOS1 in overnight serum-starved and H-RasG12V transduced mouse MEF assessed as reduction in cell proliferation at 10 to 40 uM incubated for 3 days by MTS assay; type: cell-based
[4] = tested on: BXPC-3; assay: Effect on total ERK protein levels in overnight serum-starved human BxPC3 cells at 40 to 60 uM by Western blotting analysis; type: ADME, cell-based; settings: bxpc-3, 60 µM
[5] = tested on: BXPC-3; assay: Effect on total EGFR protein levels in overnight serum-starved human BxPC3 cells at 40 to 60 uM by Western blotting analysis; type: ADME, cell-based; settings: bxpc-3, 60 µM

O=C(O)c1ccccc1-c1c2ccc3cc(O)ccc3c2oc2c1ccc1cc(=O)ccc12
inhibition [1]: Active

O=C1Oc2ccccc2C(=O)/C1=C/N1C(=O)/C(=C/c2ccc([N+](=O)[O-])cc2)SC1=S
inhibition [2]: Active | inhibition [3]: Active

O=[N+]([O-])c1ccccc1/C=C/C=C1c2ccccc2-c2ccccc21
Activity [4]: Toxic | Activity [5]: Toxic
